According to patent publication US20110312930A1, “Aryl compounds with aminoalkyl substituents and their use” (BAYER SCHERING PHARMA AKTIENGESELLSCHAFT, priority 2008, published 2011):

Test system: HCT 116 cells transfected with a luciferase reporter under the control of an HIF-responsive sequence
Experiment: HIF-luciferase assay
Type: cell-based
Details: Homo sapiens; HCT 116 HIF-luciferase reporter cells, hypoxia chamber (1% O2), 24 h, luminescence
Method: HCT 116 cells were transfected in a stable manner with a plasmid which contained a luciferase reporter under the control of an HIF-responsive sequence. These cells were sown in microtitre plates [20 000 cells/cavity in RPMI 1640 medium with 10% foetal calf serum (FCS) and 100 μg/ml of hygromycin]. Incubation was carried out overnight under standard conditions (5% CO2, 21% O2, 37° C., moistened). The following morning the cells were incubated with various concentrations of the test substances (0-10 μmol/l) in a hypoxia chamber (1% O2). After 24 h, Bright Glo reagent (Promega, Wisconsin, USA) was added in accordance with the manufacturer's instructions, and after 5 min the luminescence was measured. Cells which were incubated under normoxia served as background controls.

| Compound | IC50 |
| --- | --- |
| Cc1cc(-c2nc(-c3ccc(OC(F)(F)F)cc3)no2)nn1Cc1ccc(NCCN2CCOCC2)cc1 [Example 60, 4-[(5-Methyl-3-{3-[4-(trifluoromethoxy)phenyl]-1,2,4-oxadiazol-5-yl}-1H-pyrazol-1-yl)methyl]-N-[2-(morpholin-4-yl)ethyl]aniline] | 9 nM |
| Cc1cc(-c2nc(-c3ccc(OC(F)(F)F)cc3)no2)nn1Cc1cccc(OCCN(C)C)c1 [Example 124, N,N-Dimethyl-2-{3-[(5-methyl-3-{3-[4-(trifluoromethoxy)phenyl]-1,2,4-oxadiazol-5-yl}-1H-pyrazol-1-yl)methyl]phenoxy}ethanamine] | 5 nM |
| Cc1cc(-c2nc(-c3ccc(OC(F)(F)F)cc3)no2)nn1Cc1ccc(NCCN2CCOCC2)nc1 [Example 24] | 10 nM |
| Cc1cc(-c2nc(-c3ccc(S(=O)(=O)C(F)(F)F)cc3)no2)nn1Cc1ccc(NCCN2CCOCC2)nc1 [Example 22] | 10 nM |
| Cc1cc(-c2nc(-c3ccc(OC(F)(F)F)cc3)no2)nn1Cc1cccc(C(=O)N(C)CCN(C)C)c1 [Example 48, N-[2-(Dimethylamino)ethyl]-N-methyl-3-[(5-methyl-3-{3-[4-(trifluoromethoxy)phenyl]-1,2,4-oxa-diazol-5-yl}-1H-pyrazol-1-yl)methyl]benzenecarboxamide] | 10 nM |
| Cc1cc(-c2nc(-c3ccc(OC(F)(F)F)cc3)no2)nn1Cc1ccc(NCCN2CCS(=O)(=O)CC2)nc1 [Example 102, N-[2-(1,1-Dioxidothiomorpholin-4-yl)ethyl]-5-[(5-methyl-3-{3-[4-(trifluoromethoxy)phenyl]-1,2,4-oxadiazol-5-yl}-1H-pyrazol-1-yl)methyl]pyridine-2-amine] | 2.5 nM |
| Cc1cc(-c2nc(-c3ccc(OC(F)(F)F)cc3)no2)nn1Cc1ccc(NCCCN2CCCC2=O)nc1 [Example 74] | 8 nM |
| Cc1cc(-c2nc(-c3ccc(C(C)(C)C(F)(F)F)cc3)no2)nn1Cc1ccc(NCCN2CCCC2)nc1 [Example 14, 5-[(5-Methyl-3-{3-[4-(1,1,1-trifluoro-2-methylpropan-2-yl)phenyl]-1,2,4-oxadiazol-5-yl}-1H-pyrazol-1-yl)methyl]-N-[2-(pyrrolidin-1-yl)ethyl]pyridine-2-amine] | 7 nM |
| Cc1cc(-c2nc(-c3ccc(OC(F)(F)F)cc3)no2)nn1Cc1ccc(SCCN2CCCC2)cc1 [Example 67, 5-[5-Methyl-1-(4-{[2-(pyrrolidin-1-yl)ethyl]sulphanyl}benzyl)-1H-pyrazol-3-yl]-3-[4-(trifluoromethoxy)phenyl]-1,2,4-oxadiazole] | 10 nM |
| Cc1cc(-c2nc(-c3ccc(C(C)(C)C)cc3)no2)cn1Cc1ccc(NCCN2CCCC2)nc1 [Example 71] | 6 nM |
| Cc1cc(-c2nc(-c3ccc(OC(F)(F)F)cc3)no2)nn1Cc1ccc(NCCN2CCC(F)(F)CC2)nc1 [Example 103, N-[2-(4,4-Difluoropiperidin-1-yl)ethyl]-5-[(5-methyl-3-{3-[4-(trifluoromethoxy)phenyl]-1,2,4-oxa-diazol-5-yl}-1H-pyrazol-1-yl)methyl]pyridine-2-amine] | 3 nM |
| Cc1cc(-c2nc(-c3ccc(OC(F)(F)F)cc3)no2)nn1Cc1cccc(OCCN2CCOCC2)c1 [Example 123, 4-(2-{3-[(5-Methyl-3-{3-[4-(trifluoromethoxy)phenyl]-1,2,4-oxadiazol-5-yl}-1H-pyrazol-1-yl)-methyl]phenoxy}ethyl)morpholine] | 1 nM |
| Cc1cc(-c2nc(-c3ccc(OC(F)(F)F)cc3)no2)cn1Cc1ccc(NCCN2CCC(O)CC2)nc1 [Example 16] | 8 nM |
| Cc1cc(-c2nc(-c3ccc(OC(F)(F)F)cc3)no2)nn1Cc1cccc(OCCN2CCCC2)c1 [Example 57, 5-(5-Methyl-1-{3-[2-(pyrrolidin-1-yl)ethoxy]benzyl}-1H-pyrazol-3-yl)-3-[4-(trifluoromethoxy)-phenyl]-1,2,4-oxadiazole] | 10 nM |
| Cc1cc(-c2nc(-c3ccc(OC(F)(F)F)cc3)no2)nn1Cc1ccc(NCCN2CCCC2=O)nc1 [Example 73] | 8 nM |
